# Experimental data reported in patent US20070249639A1, “Use of 9H-Purine-2,6-Diamine Derivatives in the Treatment of Proliferative Diseases and Novel 9H-Purine-2,6-Diamine Derivatives” (priority 2004, published 2007).
# Biological target: T1, human topoisomerase II α (Homo sapiens, UniProt P11388)
# T1 construct: purchased Professor Neil Osheroff (Vanderbilt University, Nashville, Tenn., USA)
# Test: Topoisomerase II ATPase assay (Malachite Green)
# Format: biochemical
# Details: Percent inhibition @10 μM, Malachite Green assay; read-out: TOPO II inh. (inhibition of the TOPO ATPase activity)
# Method: The inhibition of topoisomerase II is measured as follows:
# Purified human topoisomerase II α was purchased from Professor Neil Osheroff (Vanderbilt University—Nashville, Tenn., USA).
# The pUC18 (Stratagene) plasmid was introduced into Escherichia coil XL-1 (Stratagene) and purified with the HiSpeed Plasmid Purification kit (Qiagen) according to the manufacturer instructions. The purity of the DNA preparations was evaluated spectrophotometrically (OD260/OD280 ratio) and by agarose gel.
# Preparation of the Malachite Green Reagent:
# Three volumes of 0.045% malachite green (Sigma, catalog no. M-9636) diluted in water are mixed for 20 min at room temperature with one volume of 4.2% ammonium molybdate (Axon Lab AG, catalog no. A-2246) diluted in 4 N HCl. After mixing, Triton X-100 (Merck, catalog no. 1.12298) is added to a final concentration of 0.01%. The solution is filtered at 0.2 μm and stored at room temperature in the dark.
# ATP hydrolysis was monitored by measuring the production of inorganic phosphate released during the catalytic cycle of topoisomerase II α with acidic molybdate and malachite green (Lanzetta,et al., An improved assay for nanomole amounts of inorganic phosphate, Anal Biochem 1979;100:95-7). Briefly, human topoisomerase II α is pre-incubated at 37° C. for 10 min in 90 μl reaction buffer (10 mM Tris.HCl pH 7.9, 175 mM KCl, 1 mM EDTA, 2 mM DTT, 5 mM MgCl2, 2.5% glycerol) in the presence of the indicated amount of pUC18 and DMSO in F96 maxisorp Nunclmmuno plates (Nunc). The reaction is initiated by the addition of 10 μl ATP at the indicated concentrations and is carried out for 30 min at 37° C. under constant agitation. The reaction is stopped by the addition of 200 μl molybdate/malachite green solution and the absorbance is immediately measured at 630 nm. The OD630 value is measured in the absence of protein for each ATP concentration (background) is subtracted from the value obtained in the presence of enzyme. A standard curve with inorganic phosphate is used to determine the amount of inorganic phosphate produced during the reaction and to ensure that the measures are in the linear range of the assay. The kinetic parameters of the enzymes are determined from measurements (at least in duplicate) of the initial rates at different ATP concentrations. The data are analyzed with GraFit (Erithacus Software).
# The compounds are tested at 10 μM of concentration to determine their inhibition potential given % of inhibition of the TOPO II ATPase activity.
# For the determination of the IC50, the procedure is repeated for different concentrations of test compound selected to cover the range of 0% to 100% inhibition and the concentration at which 50% inhibition of topoisomerase II occurs (IC50) for each compound is determined from concentration-inhibition curves in a conventional manner.
# T1 sequence (P11388 whole entry): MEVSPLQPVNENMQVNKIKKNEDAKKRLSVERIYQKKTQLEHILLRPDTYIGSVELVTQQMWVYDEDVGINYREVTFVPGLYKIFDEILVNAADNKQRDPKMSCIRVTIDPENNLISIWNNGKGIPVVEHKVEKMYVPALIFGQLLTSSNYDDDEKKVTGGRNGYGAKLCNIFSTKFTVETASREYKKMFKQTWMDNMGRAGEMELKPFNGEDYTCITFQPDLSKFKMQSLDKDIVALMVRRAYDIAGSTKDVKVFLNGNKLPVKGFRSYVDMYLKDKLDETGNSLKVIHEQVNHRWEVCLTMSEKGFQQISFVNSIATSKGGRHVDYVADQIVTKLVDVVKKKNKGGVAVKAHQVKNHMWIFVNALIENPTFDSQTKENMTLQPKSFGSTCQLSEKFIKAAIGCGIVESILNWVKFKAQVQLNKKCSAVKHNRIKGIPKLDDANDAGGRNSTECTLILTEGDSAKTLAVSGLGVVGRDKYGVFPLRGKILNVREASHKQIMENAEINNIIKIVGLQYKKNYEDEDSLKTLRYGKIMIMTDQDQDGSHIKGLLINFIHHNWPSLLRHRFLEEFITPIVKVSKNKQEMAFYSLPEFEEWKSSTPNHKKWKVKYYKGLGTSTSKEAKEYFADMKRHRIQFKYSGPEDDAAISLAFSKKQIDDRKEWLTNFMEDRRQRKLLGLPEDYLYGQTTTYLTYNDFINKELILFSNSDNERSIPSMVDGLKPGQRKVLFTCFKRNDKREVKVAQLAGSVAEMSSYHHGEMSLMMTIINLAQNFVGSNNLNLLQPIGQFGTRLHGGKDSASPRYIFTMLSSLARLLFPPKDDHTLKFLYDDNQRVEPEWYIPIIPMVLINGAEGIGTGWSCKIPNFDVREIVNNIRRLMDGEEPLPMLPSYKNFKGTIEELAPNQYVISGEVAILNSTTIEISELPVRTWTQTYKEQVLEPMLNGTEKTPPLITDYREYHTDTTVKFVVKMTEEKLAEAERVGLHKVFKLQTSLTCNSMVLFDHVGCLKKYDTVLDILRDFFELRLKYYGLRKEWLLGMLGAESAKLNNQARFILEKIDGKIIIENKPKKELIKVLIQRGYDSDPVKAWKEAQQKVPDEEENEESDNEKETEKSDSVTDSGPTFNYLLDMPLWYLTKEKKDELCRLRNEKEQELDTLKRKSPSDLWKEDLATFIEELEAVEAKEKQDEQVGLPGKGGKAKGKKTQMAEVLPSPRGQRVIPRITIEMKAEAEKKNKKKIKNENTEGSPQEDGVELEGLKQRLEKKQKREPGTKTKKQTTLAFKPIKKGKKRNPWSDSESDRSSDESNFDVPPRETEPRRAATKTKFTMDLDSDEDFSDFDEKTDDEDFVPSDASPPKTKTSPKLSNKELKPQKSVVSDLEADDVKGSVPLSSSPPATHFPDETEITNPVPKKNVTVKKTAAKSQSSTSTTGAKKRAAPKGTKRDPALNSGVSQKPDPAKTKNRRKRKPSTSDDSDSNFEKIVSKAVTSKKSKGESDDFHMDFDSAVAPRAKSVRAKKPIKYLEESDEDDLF
row,inhibition at 10 µM [%],SMILES
1,≥ 80,"CCc1nc2c(NC(C)(C)C)nc(Nc3ccc4nc(OCCN5CCOCC5)sc4c3)nc2[nH]1 [Example 37, N*6*-tert-Butyl-8-ethyl-N*2*-[2-(2-morpholin-4-yl-ethoxy)-benzothiazol-6-yl]-9H-purine-2,6-diamine]"
2,< 50,"C=C(C=Cc1nc(OCCN2CCOCC2)sc1C)Nc1nc(NC(C)(C)C)c2nc(C(C)C)[nH]c2n1 [Example 38, N*6*-tert-Butyl-8-isopropyl-N*2*-{1-methylene-3-[5-methyl-2-(2-morpholin-4-yl-ethoxy)-thiazol-4-yl]-allyl}-9H-purine-2,6-diamine]"
3,65 to 80,"C=C(C=Cc1nc(OCCN2CCOCC2)sc1C)Nc1nc(NC(C)(C)C)c2nc(C3CC3)[nH]c2n1 [Example 39, N*6*-tert-Butyl-8-cyclopropyl-N*2*-{1-methylene-3-[5-methyl-2-(2-morpholin-4-yl-ethoxy)-thiazol-4-yl]-allyl}-9H-purine-2,6-diamine]"
4,0,"C=C(C=Cc1nc(OCCN2CCOCC2)sc1C)Nc1nc(NC(C)(C)C)c2nc(C3CCCC3)[nH]c2n1 [Example 40, N*6*-tert-Butyl-8-cyclopentyl-N*2*-{1-methylene-3-[5-methyl-2-(2-morpholin-4-yl-ethoxy)-thiazol-4-yl]-allyl}-9H-purine-2,6-diamine]"
5,65 to 80,"CC(C)(C)Nc1nc(Nc2ccc3ncsc3c2)nc2[nH]c(C3CC3)nc12 [Example 41, N*2*-Benzothiazol-6-yl-N*6*-tert-butyl-8-cyclopropyl-9H-purine-2,6-diamine]"
6,65 to 80,"CC(C)(C)Nc1nc(Nc2ccc3ncsc3c2)nc2[nH]c(N)nc12 [Example 42, N*2*-Benzothiazol-6-yl-N*6*-tert-butyl-9H-purine-2,6,8-triamine]"
7,65 to 80,"CC(C)(C)Nc1nc(Nc2ccc3ccccc3c2)nc2[nH]c(N)nc12 [Example 43, N*6*-tert-Butyl-N*2*-naphthalen-2-yl-9H-purine-2,6,8-triamine]"
8,65 to 80,"CNc1nc2c(NC(C)(C)C)nc(Nc3ccc4ccccc4c3)nc2[nH]1 [Example 44, N*6*-tert-Butyl-N*8*-methyl-N*2*-naphthalen-2-yl-9H-purine-2,6,8-triamine]"
9,< 50,"CC(=O)c1nc2c(NC(C)(C)C)nc(Nc3ccc4ncsc4c3)nc2[nH]1 [Example 45, 1-[2-(Benzothiazol-6-ylamino)-6-tert-butylamino-9H-purin-8-yl]-ethanone]"
10,50 to 65,"CC(C)(C)Nc1nc(Nc2ccc3ncccc3c2)nc2[nH]cnc12 [Example 46, N*6*-tert-Butyl-N*2*-quinolin-6-yl-9H-purine-2,6-diamine]"
11,< 50,"CC(C)(C)Nc1nc(Nc2ccc3nsnc3c2)nc2[nH]cnc12 [Example 47, N*2*-Benzo[1,2,5]thiadiazol-5-yl-N*6*-tert-butyl-9H-purine-2,6-diamine]"
12,< 50,"c1nc2c(NC3CCCCCC3)nc(Nc3ccc4nsnc4c3)nc2[nH]1 [Example 49, N*2*-Benzo[1,2,5]thiadiazol-5-yl-N*6*-cycloheptyl-9H-purine-2,6-diamine]"
13,50 to 65,"Cc1nc2ccc(Nc3nc(NC4CCCCCC4)c4nc[nH]c4n3)cc2s1 [Example 50, N*6*-Cycloheptyl-N*2*-(2-methyl-benzothiazol-6-yl)-9H-purine-2,6-diamine]"
14,50 to 65,"CCC(C)(C)Nc1nc(Nc2ccc3ncsc3c2)nc2[nH]cnc12 [Example 51, N*2*-Benzothiazol-6-yl-N*6*-(1,1-dimethyl-propyl)-9H-purine-2,6-diamine]"
15,< 50,"CCC(C)(C)Nc1nc(Nc2ccc3ncccc3c2)nc2[nH]cnc12 [Example 52, N*6*-(1,1-Dimethyl-propyl)-N*2*-quinolin-6-yl-9H-purine-2,6-diamine]"
16,< 50,"CCC(C)(C)Nc1nc(Nc2ccc3nsnc3c2)nc2[nH]cnc12 [Example 53, N*2*-Benzo[1,2,5]thiadiazol-5-yl-N*6*-(1,1-dimethyl-propyl)-9H-purine-2,6-diamine]"
17,< 50,"CCC(C)(C)Nc1nc(Nc2ccc3nc(C)sc3c2)nc2[nH]cnc12 [Example 54, N*6*-(1,1-Dimethyl-propyl)-N*2*-(2-methyl-benzothiazol-6-yl)-9H-purine-2,6-diamine]"

row,inhibition at 10 µM [%],SMILES
1,< 50,"CC(C)(Cc1ccc(F)cc1)Nc1nc(Nc2ccc3ncsc3c2)nc2[nH]cnc12 [Example 55, N*2*-Benzothiazol-6-yl-N*6*-[2-(4-fluoro-phenyl)-1,1-dimethyl-ethyl]-9H-purine-2,6-diamine]"
2,< 50,"CC(C)(Cc1ccc(F)cc1)Nc1nc(Nc2ccc3ncccc3c2)nc2[nH]cnc12 [Example 56, N*6*-[2-(4-Fluoro-phenyl)-1,1-dimethyl-ethyl]-N*2*-quinolin-6-yl-9H-purine-2,6-diamine]"
3,< 50,"CC(C)(Cc1ccc(F)cc1)Nc1nc(Nc2ccc3nsnc3c2)nc2[nH]cnc12 [Example 57, N*2*-Benzo[1,2,5]thiadiazol-5-yl-N*6*-[2-(4-fluoro-phenyl)-1,1-dimethyl-ethyl]-9H-purine-2,6-diamine]"
4,< 50,"Cc1nc2ccc(Nc3nc(NC(C)(C)Cc4ccc(F)cc4)c4nc[nH]c4n3)cc2s1 [Example 58, N*6*-[2-(4-Fluoro-phenyl)-1,1-dimethyl-ethyl]-N*2*-(2-methyl-benzothiazol-6-yl)-9H-purine-2,6-diamine]"
5,< 50,"c1cncc(N2CCN(c3nc(Nc4ccc5ncsc5c4)nc4[nH]cnc34)CC2)c1 [Example 59, Benzothiazol-6-yl-[6-(4-pyridin-3-yl-piperazin-1-yl)-9H-purin-2-yl]-amine]"
6,< 50,"c1ccc(N2CCN(c3nc(Nc4ccc5ncsc5c4)nc4[nH]cnc34)CC2)nc1 [Example 60, Benzothiazol-6-yl-[6-(4-pyridin-2-yl-piperazin-1-yl)-9H-purin-2-yl]-amine]"
7,< 50,"c1ccc(N2CCN(c3nc(Nc4ccc5ncccc5c4)nc4[nH]cnc34)CC2)nc1 [Example 61, [6-(4-Pyridin-2-yl-piperazin-1-yl)-9H-purin-2-yl]-quinolin-6-yl-amine]"
8,< 50,"c1ccc(N2CCN(c3nc(Nc4ccc5nsnc5c4)nc4[nH]cnc34)CC2)nc1 [Example 62, Benzo[1,2,5]thiadiazol-5-yl-[6-(4-pyridin-2-yl-piperazin-1-yl)-9H-purin-2-yl]-amine]"
9,< 50,"Cc1nc2ccc(Nc3nc(N4CCN(c5ccccn5)CC4)c4nc[nH]c4n3)cc2s1 [Example 63, (2-Methyl-benzothiazol-6-yl)-[6-(4-pyridin-2-yl-piperazin-1-yl)-9H-purin-2-yl]-amine]"
10,< 50,"c1cnc2ccc(Nc3nc(N4CCN(c5cnccn5)CC4)c4nc[nH]c4n3)cc2c1 [Example 64, Quinolin-6-yl-[6-(2,3,5,6-tetrahydro-[1,2′]bipyrazinyl-4-yl)-9H-purin-2-yl]-amine]"
11,50 to 65,"CC(C)(C)Nc1nc(Nc2ccc3ncsc3c2)nc2[nH]cnc12 [Example 65, N*2*-Benzothiazol-6-yl-N*6*-tert-butyl-9H-purine-2,6-diamine]"
12,< 50,"c1nc2c(NC3CCCCCC3)nc(Nc3ccc4ncsc4c3)nc2[nH]1 [Example 66, N*2*-Benzothiazol-6-yl-N*6*-cycloheptyl-9H-purine-2,6-diamine]"
13,< 50,"c1cnc2ccc(Nc3nc(NC4CCCCCC4)c4nc[nH]c4n3)cc2c1 [Example 67, N*6*-Cycloheptyl-N*2*-quinolin-6-yl-9H-purine-2,6-diamine]"
14,< 50,"CC(C)(CO)Nc1nc(Nc2ccc3ncsc3c2)nc2[nH]cnc12 [Example 68, 2-[2-(Benzothiazol-6-ylamino)-9H-purin-6-ylamino]-2-methyl-propan-1-ol]"
15,50 to 65,"CC(C)(C)Nc1nc(Nc2ccc3ccccc3c2)nc2[nH]c(Br)nc12 [Example 69, 8-Bromo-N*6*-tert-butyl-N*2*-naphthalen-2-yl-9H-purine-2,6-diamine]"
16,< 50,"C=Cc1nc2c(NC(C)(C)C)nc(Nc3ccc4ccccc4c3)nc2[nH]1 [Example 70, N*6*-tert-Butyl-N*2*-naphthalen-2-yl-8-vinyl-9H-purine-2,6-diamine]"
